Like-named read-outs stand apart in the source and are kept apart here.
Tested on: SARS-CoV-2-NLuc in A549-hACE2 cells
Assay: microbe, parasite or virus in culture
Format: cell-based
[1] = Severe acute respiratory syndrome coronavirus 2, 48 h; read-out: MPro EC50

| Compound | EC50 [1] [nM] | EC50 (Severe acute respiratory syndrome coronavirus 2, 48 h, read-out: MPro EC50) [nM] |
| --- | --- | --- |
| COc1cc(-c2cc3[nH]c(=O)n([C@@H]4CC(=O)NC[C@@H](C)C4)c(=O)c3s2)c(Cl)cc1F (single isomer, unassigned) [Example 53] | 34 | – |
| COc1cc(-c2cc3[nH]c(=O)n(C4CCNC(=O)C4)c(=O)c3s2)c(Cl)cc1F (stereo not shown) [Example 14, 6-(2-chloro-4-fluoro-5-methoxyphenyl)-3-(2-oxopiperidin-4-yl)thieno[3,2-d]pyrimidine-2,4(1H,3H)-dione] | 318 | – |
| O=C1C[C@@H](n2c(=O)[nH]c3cc(-c4ccccc4Cl)sc3c2=O)CCN1 [Example 5, (S)-6-(2-chlorophenyl)-3-(2-oxopiperidin-4-yl)thieno[3,2-d]pyrimidine-2,4(1H,3H)-dione] | 92.7 | – |
| O=C1CC(n2c(=O)[nH]c3cc(-c4ccccc4Cl)sc3c2=O)CCN1 (stereo not shown) [Example 1, 6-(2-chlorophenyl)-3-(2-oxopiperidin-4-yl)thieno[3,2-d]pyrimidine-2,4(1H,311)-dione] | 255 | – |
| COc1cc(-c2cc3c(s2)c(=O)n([C@H]2CCCNC(=O)C2)c(=O)n3CC#N)c(Cl)cc1F [Example 35, (S)-2-(6-(2-chloro-4-fluoro-5-methoxyphenyl)-2,4-dioxo-3-(2-oxoazepan-4-yl)-3,4-dihydrothieno[3,2-d]pyrimidin-1(2H)-yl)acetonitrile] | 84.6 | – |
| COc1cc(-c2cc3[nH]c(=O)n([C@@H]4CCCNC(=O)C4)c(=O)c3s2)c(Cl)cc1F [Example 30, (R)-6-(2-chloro-4-fluoro-5-methoxyphenyl)-3-(2-oxoazepan-4-yl)thieno[3,2-d]pyrimidine-2,4(1H,3H)-dione] | 7.73 | – |
| O=C1C[C@H](n2c(=O)[nH]c3cc(-c4ccccc4Cl)sc3c2=O)CN1 [Example 2, 6-(2-chlorophenyl)-3-[(3S)-5-oxopyrrolidin-3-yl]-1H-thieno[3,2-d]pyrimidine-2,4-dione] | 35500 | – |
| COc1cc(-c2cc3[nH]c(=O)n([C@H]4CCNC(=O)C4)c(=O)c3s2)c(Cl)cc1F [Example 16, (S)-6-(2-chloro-4-fluoro-5-methoxyphenyl)-3-(2-oxopiperidin-4-yl)thieno[3,2-d]pyrimidine-2,4(1H,3H)-dione] | 222 | – |
| COc1cc(-c2cc3[nH]c(=O)n([C@H]4CCCNC(=O)C4)c(=O)c3s2)c(Cl)cc1F [Example 31, (S)-6-(2-chloro-4-fluoro-5-methoxyphenyl)-3-(2-oxoazepan-4-yl)thieno[3,2-d]pyrimidine-2,4(1H,3H)-dione] | 51.2 | – |
| COc1cc(-c2cc3[nH]c(=O)n(C4CCCCNC(=O)C4)c(=O)c3s2)c(Cl)cc1F (stereo not shown) [Example 58, 6-(2-chloro-4-fluoro-5-methoxyphenyl)-3-(2-oxoazocan-4-yl)thieno[3,2-d]pyrimidine-2,4(1H,3H)-dione] | 723 | – |
| CNC(=O)CCn1c(=O)n([C@@H]2CCCNC(=O)C2)c(=O)c2sc(-c3cc(OC)c(F)cc3Cl)cc21 [Example 42, (R)-3-(6-(2-chloro-4-fluoro-5-methoxyphenyl)-2,4-dioxo-3-(2-oxoazepan-4-yl)-3,4-dihydrothieno[3,2-d]pyrimidin-1(2H)-yl)-N-methylpropanamide] | 242 | – |
| COc1ccc(Cl)c(-c2ccc3c(=O)n(C4CCCNC(=O)C4)c(=O)[nH]c3c2)c1 (stereo not shown) [Example 27, 7-(2-chloro-5-methoxyphenyl)-3-(2-oxoazepan-4-yl)quinazoline-2,4(1H,3H)-dione] | 646 | – |
| COc1cc(-c2cc3[nH]c(=O)n([C@@H]4CCCNC(=O)C4)c(=O)c3s2)c(C#N)cc1F [Example 46, (R)-2-(2,4-dioxo-3-(2-oxoazepan-4-yl)-1,2,3,4-tetrahydrothieno[3,2-d]pyrimidin-6-yl)-5-fluoro-4-methoxybenzonitrile] | 771 | – |
| COc1cc(-c2cc3[nH]c(=O)n([C@@H]4CCCNC(=O)C4)c(=O)c3cc2OC)c(C#N)cc1F [Example 56, (R)-5-fluoro-4-methoxy-2-(6-methoxy-2,4-dioxo-3-(2-oxoazepan-4-yl)-1,2,3,4-tetrahydroquinazolin-7-yl)benzonitrile] | 795 | – |
| COc1cc(-c2cc3[nH]c(=O)n(C4CC(=O)NCC(C)(C)C4)c(=O)c3s2)c(Cl)cc1F (stereo not shown) [Example 55, 6-(2-chloro-4-fluoro-5-methoxyphenyl)-3-(6,6-dimethyl-2-oxoazepan-4-yl)thieno[3,2-d]pyrimidine-2,4(1H,3H)-dione] | 102 | – |
| COc1cnc(Cl)c(-c2cc3[nH]c(=O)n(C4CCNC(=O)C4)c(=O)c3s2)c1 (stereo not shown) [Example 15, 6-(2-chloro-5-methoxypyridin-3-yl)-3-(2-oxopiperidin-4-yl)thieno[3,2-d]pyrimidine-2,4(1H,3H)-dione] | 18600 | – |
| COc1cc(-c2cc3c(s2)c(=O)n([C@@H]2CCCNC(=O)C2)c(=O)n3C)c(Cl)cc1F [Example 32, (R)-6-(2-chloro-4-fluoro-5-methoxyphenyl)-1-methyl-3-(2-oxoazepan-4-yl)thieno[3,2-d]pyrimidine-2,4(1H,3H)-dione] | 15.6 | – |

| Compound | EC50 [1] [nM] | EC50 (Severe acute respiratory syndrome coronavirus 2, 48 h, read-out: MPro EC50) [nM] |
| --- | --- | --- |
| O=C1C[C@@H](n2c(=O)[nH]c3cc(-c4ccccc4Cl)sc3c2=O)CN1 [Example 3, 6-(2-chlorophenyl)-3-[(3R)-5-oxopyrrolidin-3-yl]-1H-thieno[3,2-d]pyrimidine-2,4-dione] | 6830 | – |
| O=C1CC(n2c(=O)[nH]c3cc(-c4ccccc4Cl)ccc3c2=O)CCCN1 (stereo not shown) [Example 9, 7-(2-chlorophenyl)-3-(2-oxoazepan-4-yl)quinazoline-2,4(1H,3H)-dione] | 4850 | – |
| COc1cc(-c2cc3[nH]c(=O)n([C@@H]4CCCNC(=O)C4)c(=O)c3o2)c(Cl)cc1F [Example 59, (R)-6-(2-chloro-4-fluoro-5-methoxyphenyl)-3-(2-oxoazepan-4-yl)furo[3,2-d]pyrimidine-2,4(1H,3H)-dione] | 651 | – |
| COc1cc(-c2cc3c(s2)c(=O)n([C@@H]2CCCNC(=O)C2)c(=O)n3CC2(C#N)CC2)c(Cl)cc1F [Example 36, (R)-1-((6-(2-chloro-4-fluoro-5-methoxyphenyl)-2,4-dioxo-3-(2-oxoazepan-4-yl)-3,4-dihydrothieno[3,2-d]pyrimidin-1(2H)-yl)methyl)cyclopropane-1-carbonitrile] | < 4.07 | – |
| COc1ccc(Cl)c(-c2cc3[nH]c(=O)n([C@H]4CCNC(=O)C4)c(=O)c3s2)c1 [Example 17, (S)-6-(2-chloro-5-methoxyphenyl)-3-(2-oxopiperidin-4-yl)thieno[3,2-d]pyrimidine-2,4(1H,3H)-dione] | 84.6 | – |
| COc1cnc(Cl)c(-c2cc3[nH]c(=O)n([C@@H]4CCCNC(=O)C4)c(=O)c3s2)c1 [Example 44, (R)-6-(2-chloro-5-methoxypyridin-3-yl)-3-(2-oxoazepan-4-yl)thieno[3,2-d]pyrimidine-2,4(1H,3H)-dione] | 433 | – |
| Cn1cc(-c2cccc(Cl)c2-c2cc3[nH]c(=O)n(C4CCNC(=O)C4)c(=O)c3s2)c(C(F)(F)F)n1 (stereo not shown) [Example 12, 6-(2-chloro-6-(1-methyl-3-(trifluoromethyl)-1H-pyrazol-4-yl)phenyl)-3-(2-oxopiperidin-4-yl)thieno[3,2-d]pyrimidine-2,4(1H,3H)-dione] | 752 | – |
| O=C1C[C@@H](n2c(=O)[nH]c3cc(-c4ccccc4Cl)sc3c2=O)CCCN1 (single isomer, unassigned) [Example 22] | – | 155 |
| COc1ccc(Cl)c(-c2cc3[nH]c(=O)n(C4CCCNC(=O)C4)c(=O)c3s2)c1 (stereo not shown) [Example 20, 6-(2-chloro-5-methoxyphenyl)-3-(2-oxoazepan-4-yl)thieno[3,2-d]pyrimidine-2,4(1H,3H)-dione] | 56.4 | – |
| COc1cc(-c2cc3c(s2)c(=O)n([C@@H]2CCCNC(=O)C2)c(=O)n3CCN2CCCC2=O)c(Cl)cc1F [Example 39, (R)-6-(2-chloro-4-fluoro-5-methoxyphenyl)-3-(2-oxoazepan-4-yl)-1-(2-(2-oxopyrrolidin-1-yl)ethyl)thieno[3,2-d]pyrimidine-2,4(1H,3H)-dione] | 148 | – |
| O=C1C[C@H](n2c(=O)[nH]c3cc(-c4ccccc4Cl)sc3c2=O)CCN1 [Example 4, (R)-6-(2-chlorophenyl)-3-(2-oxopiperidin-4-yl)thieno[3,2-d]pyrimidine-2,4(1H,3H)-dione] | 978 | – |
| COc1ccc(C#N)c(-c2cc3[nH]c(=O)n([C@H]4CCNC(=O)C4)c(=O)c3s2)c1 [Example 26, (S)-2-(2,4-dioxo-3-(2-oxopiperidin-4-yl)-1,2,3,4-tetrahydrothieno[3,2-d]pyrimidin-6-yl)-4-methoxybenzonitrile] | 2120 | – |
| COc1ccc(Cl)c(-c2cc3c(s2)c(=O)n([C@@H]2CCCNC(=O)C2)c(=O)n3CCC#N)c1 [Example 29, (R)-3-(6-(2-chloro-5-methoxyphenyl)-2,4-dioxo-3-(2-oxoazepan-4-yl)-3,4-dihydrothieno[3,2-d]pyrimidin-1(2H)-yl)propanenitrile] | < 5.64 | – |
| COc1ccc(Cl)c(-c2cc3[nH]c(=O)n(C4CCNC(=O)C4)c(=O)c3s2)c1 (stereo not shown) [Example 7, 6-(2-chloro-5-methoxy-phenyl)-3-(2-oxo-4-piperidyl)-1H-thieno[3,2-d]pyrimidine-2,4-dione] | 77.1 | – |
| COc1cc(Cl)c(-c2cc3[nH]c(=O)n([C@H]4CCNC(=O)C4)c(=O)c3s2)cc1OC [Example 18, (S)-6-(2-chloro-4,5-dimethoxyphenyl)-3-(2-oxopiperidin-4-yl)thieno[3,2-d]pyrimidine-2,4(1H,3H)-dione] | 1150 | – |
| COc1cc(-c2cc3c(s2)c(=O)n([C@@H]2CCCNC(=O)C2)c(=O)n3CCC#N)c(Cl)cc1F [Example 48, (R)-3-(6-(2-chloro-4-fluoro-5-methoxyphenyl)-2,4-dioxo-3-(2-oxoazepan-4-yl)-3,4-dihydrothieno[3,2-d]pyrimidin-1(2H)-yl)propanenitrile] | 16.4 | – |
| COc1cc(-c2cc3c(s2)c(=O)n([C@@H]2CCCNC(=O)C2)c(=O)n3CCC#N)c(C#N)cc1F [Example 49, (R)-2-(1-(2-cyanoethyl)-2,4-dioxo-3-(2-oxoazepan-4-yl)-1,2,3,4-tetrahydrothieno[3,2-d]pyrimidin-6-yl)-5-fluoro-4-methoxybenzonitrile] | > 1000 | – |

Reference: US20250276979A1, “SARS-COV2 MAIN PROTEASE INHIBITORS” (Gilead Sciences, Inc., priority 2024, published 2025)
